Earlier results in patent publication US20110008439A1, “DULOXETIN COMPOSITION” (priority 2006, published 2011).

Settings: pH values less than 2.5

In the case of `CNCC[C@H](Oc1cccc2ccccc12)c1cccs1` [Duloxetine, duloxetine], the Stability in solution is given as “unstable”.
